Reference: publication PMC8819291, “Adaptively evolved human oral actinomyces‐sourced defensins show therapeutic potential” (EMBO Molecular Medicine, 2021)
Where a SMILES comes first, the peptide text is derived from it.

Assays:
[1] = tested on: fresh erythrocytes from the female ICR mice; experiment: Hemolysis assay; assay type: cell-based, Mus musculus; conditions: 25 μM
Procedure: Hemolytic activity of peptides against fresh erythrocytes from the female ICR mice (Mus musculus) (25 g, 6 weeks of age) was assayed according to the standard method (Zhu et al, [2012]). Peptides were diluted with 0.9% NaCl to the indicated concentration. The percentage of hemolysis is determined as (A pep–A blank)/(A tot–A blank) × 100, in which “A” represents absorbance measured at 570 nm. A blank and A pep were evaluated in the absence or presence of peptides. One hundred percent hemolysis (A tot) was obtained in the presence of 1% Triton X‐100.

[2] = Bioaffinity ESI-MS with UMP; assay type: binding, Staphylococcus aureus; conditions: 25 mM ammonium acetate (pH5.2)
Procedure: All components for interactions were dissolved in 25 mM ammonium acetate (pH5.2). Electrospray spectra were recorded with Waters SynaptG2‐Si mass spectrometer (Waters, Manchester, UK) and measurements were performed with positive ESI in resolution mode. Ions were scanned in a mass range of 500–2,000 m/z with the following conditions: the capillary voltage at 1,500 V; the cone voltage at 40 V; the source block temperature at 30°C. Spectra were recorded and processed by the software Masslynx4.1 (Waters, Manchester, UK).

[3] = tested on: BM cells (Bacillus megaterium); experiment: Scanning electron microscope observation of cell deformation; assay type: cell-based; conditions: 10 × C L, 37°C, 90 min
Procedure: After centrifugation, bacterial pellets were fixed with 2.5% glutaraldehyde for 1 h, followed by washing three times with PBS buffer (pH 7.3). Dehydration was carried out with a series of graded ethanol solutions. Cells were then dried by BAL‐TEC CPD‐030 critical point dryer (Bal‐Tec AG, Balzers, Liechtenstein) before being mounted on carbon tape and sputtered with a gold coating (BAL‐TEC SCD005). Images were visualized in FEI QUANTA 450.

MRSA P1374 = experiment: Cytoplasmic accumulation of UMP; assay type: cell-based, Staphylococcus aureus; conditions: 20 × C L, 30 min; RP-HPLC, UV 260 nm
Procedure: To analyze the cytoplasmic nucleotide pool, we carried out the cytoplasmic UMP accumulation experiment according to the literature (Brötz et al, [1997]) with some modifications. MRSA P1374 cells were grown in 40‐ml broth medium at 37°C to an OD600 of 0.5. The culture was supplemented with 130 μg/ml chloramphenicol. […] After 30 min of incubation, UMP was extracted from the harvested cells by stirring them into boiling water. The suspension was then centrifuged (43,000 g, 60 min) at 4°C and the supernatant was lyophilized and dissolved in 400 μl of 50 mM ammonium acetate (pH 5.2) and adjusted to pH 2.0 with acetic acid. After acidification, the supernatant was fractionated by RP‐HPLC on Hypersil ODS (250 × 4.6 mm; Thermo Scientific) and UMP was eluted from the column with a linear gradient from 0 to 40% methanol in 50 mM NH4Ac (pH 5.2) within 40 min with a flow rate of 1 ml/min. UV absorbance was monitored at 260 nm. UMP was identified by ultraperformance liquid chromatography–high resolution mass spectrometry (UPLC‐HRMS) and MALDI‐TOF. Both methods yielded consistent results.

[4] = Circular dichroism spectroscopy with UMP; assay type: binding; conditions: 50 mM NH4OAc, room temperature
Procedure: The spectra were measured at room temperature from 300 to 200 nm by using a quartz cell of 1.0 mm thickness. Data were collected at 1‐nm intervals with a scan rate of 2 nm/s.

HL‐60 cells = experiment: Peptide-induced MCP-1 release (ELISA); assay type: cell-based, human; conditions: 24 h
Procedure: (§1) A549 and HL‐60 cells were purchased from the Cell Resource Center of the Chinese Academy of Medical Sciences (Beijing, China). They were tested for mycoplasma contamination with the Mycoplasma Detection Kit (Solarbio, China) and only negative cultures were used in our experiments. The cells were cultured in complete Dulbecco’s Modified Eagle Medium (DMEM) supplemented with 10% fetal bovine serum (FBS), penicillin (100 units/ml), and streptomycin ([…]) at 37°C in 5% CO2. The culture medium was changed every 2 days. Cells were passaged every 4–5 days with 0.25% trypsin (Gibco, USA). For enzyme‐linked immunosorbent assay (ELISA) (Hara et al, [2008]), A549 or HL‐60 cells were seeded in six‐well plates at a density of 1 × 10^5 cells/well and were incubated at 37°C in 5% CO2 overnight. Medium was aspirated and replaced with fresh complete DMEM supplemented with 10% FBS or serum‐free medium, both containing different concentrations of polypeptides for 24 h. Then, the supernatants were harvested for quantification of the IL‐8 amount in A549 by the Human CXCL8/IL‐8 Quantikine ELISA Kit (R&D Systems Inc., Minneapolis, MN, USA) and the MCP‐1 amount in HL‐60 by the Human MCP‐1 ELISA Kit (Boster Biological Technology Co., Ltd, Wuhan, China) as per the manufactures’ instructions.

HL‐60 = experiment: Cytotoxicity assay (CCK-8); assay type: cell-based, human; conditions: 72 h
Procedure: Cells were cultured at 37°C in 5% CO2: 95% air incubator in Minimum Essential Medium (MEM) supplemented with 10% (v/v) fetal bovine serum (FBS). Cells were seeded at a density of 7 × 10^3 cells per well in 96‐well plates and incubated for 24 h. Media were then replaced with 200 μl of media containing various concentrations of peptides. The cells were incubated for 72 h and cytotoxicity was assessed with CCK‐8 Kits (Dojindo Molecular Technologies, Tokyo, Japan). Absorbance was detected at 450 nm with the TECAN Infinite M200 microplate reader (Tecan, Durham, USA).

A549 cells = experiment: Peptide-induced IL-8 release (ELISA); assay type: cell-based, human; conditions: 24 h
Procedure: as §1

SP D39 = experiment: Mouse lung infection model
Procedure: To this end, ICR female mice (30 g each mouse; 9–10 weeks of age) were anesthetized with 1.25% 2,2,2‐Tribromoethanol (Avertin) (Macklin, Shanghai, China) and hung by their front teeth on a steel wire. Then, they were inoculated intranasally with 10–20 µl bacterial suspension of SP D39 of fresh overnight culture (1.5 × 10^6 CFU per mouse) and then were removed from the wire to their cages. A control group of untreated mice was included. […] Mice were treated with penicillin as a positive control. At 48 h post‐infection, the mice were sacrificed and lungs removed and homogenized in 0.9% saline. Colony counts from lung homogenates were determined and the total number of colonies/lungs per mouse was calculated. Schematic representation is provided in Appendix Fig S16B.

[5] = tested on: Streptococcus sanguinis ATCC 1.2497; experiment: Inhibition-zone-based synergy assay; assay type: cell-based; conditions: 0.05 nmol/well, without AMSIN
[6] = tested on: Streptococcus salivarius ATCC 1.2498; experiment: Inhibition-zone-based synergy assay; assay type: cell-based; conditions: 0.05 nmol/well, without AMSIN
[7] = FBS-containing medium, 25 μg/mL, replicate 1
[8] = FBS-containing medium, 25 μg/mL, replicate 2
[9] = FBS-containing medium, 25 μg/mL, replicate 3
[10] = FBS-containing medium, 50 μg/mL, replicate 1
[11] = FBS-containing medium, 50 μg/mL, replicate 2
[12] = FBS-containing medium, 50 μg/mL, replicate 3
[13] = FBS-containing medium, 100 μg/mL, replicate 1
[14] = FBS-containing medium, 100 μg/mL, replicate 2
[15] = FBS-containing medium, 100 μg/mL, replicate 3
[16] = Serum-Free medium, 25 μg/mL, replicate 1
[17] = Serum-Free medium, 25 μg/mL, replicate 2
[18] = Serum-Free medium, 25 μg/mL, replicate 3
[19] = Serum-Free medium, 50 μg/mL, replicate 1
[20] = Serum-Free medium, 50 μg/mL, replicate 2
[21] = Serum-Free medium, 50 μg/mL, replicate 3
[22] = Serum-Free medium, 100 μg/mL, replicate 1
[23] = Serum-Free medium, 100 μg/mL, replicate 2
[24] = Serum-Free medium, 100 μg/mL, replicate 3

CC[C@H](C)[C@H](NC(=O)[C@H](CCCCN)NC(=O)[C@@H](NC(=O)[C@H](C)NC(=O)[C@H](CC(C)C)NC(=O)[C@H](CCCCN)NC(=O)[C@H](Cc1ccccc1)NC(=O)[C@H](CC(C)C)NC(=O)[C@H](Cc1cnc[nH]1)NC(=O)CNC(=O)[C@H](Cc1ccccc1)NC(=O)[C@@H](N)Cc1ccccc1)[C@@H](C)O)C(=O)N[C@H](C(=O)N1CCC[C@H]1C(=O)N[C@@H](CO)C(=O)N[C@@H](CC(C)C)C(=O)N[C@@H](Cc1ccccc1)C(=O)N[C@@H](CCC(N)=O)C(=O)O)[C@@H](C)CC [Meucin-18, reference compound] (H-FFGHLFKLATKIIPSLFQ-OH)
Hemolysis (%) ([1]; technical replicate 1): 91.54% | Hemolysis (%) ([1]; technical replicate 2): 95.84% | Hemolysis (%) ([1]; technical replicate 3): 92.43%

CN[C@H](CC(C)C)C(=O)N[C@H]1C(=O)N[C@@H](CC(N)=O)C(=O)N[C@H]2C(=O)N[C@H]3C(=O)N[C@H](C(=O)N[C@H](C(=O)O)c4cc(O)cc(O)c4-c4cc3ccc4O)[C@H](O)c3ccc(c(Cl)c3)Oc3cc2cc(c3O[C@@H]2O[C@H](CO)[C@@H](O)[C@H](O)[C@H]2O[C@H]2C[C@](C)(N)[C@H](O)[C@H](C)O2)Oc2ccc(cc2Cl)[C@H]1O [vancomycin, reference compound]
Non-covalent complex with UMP by ESI-MS [2]: complex formation | Cell shape by scanning electron microscopy [3]: deformation of the cell shape | Cytoplasmic accumulation of UMP (MRSA P1374): accumulated | Complex with UMP by CD absorption signatures [4]: a complex was formed

LL-37: the human AMP with immunomodulatory properties, chemically synthesized, positive control [reference compound]
MCP-1 (HL‐60 cells; [7]): 486 pg/mL | MCP-1 (HL‐60 cells; [8]): 414 pg/mL | MCP-1 (HL‐60 cells; [9]): 465 pg/mL | MCP-1 (HL‐60 cells; [10]): 538 pg/mL | MCP-1 (HL‐60 cells; [11]): 514 pg/mL | MCP-1 (HL‐60 cells; [12]): 517 pg/mL | MCP-1 (HL‐60 cells; [13]): 545 pg/mL | MCP-1 (HL‐60 cells; [14]): 571 pg/mL | MCP-1 (HL‐60 cells; [15]): 524 pg/mL | MCP-1 (HL‐60 cells; [16]): 431 pg/mL | MCP-1 (HL‐60 cells; [17]): 519 pg/mL | MCP-1 (HL‐60 cells; [18]): 410 pg/mL | MCP-1 (HL‐60 cells; [19]): 583 pg/mL | MCP-1 (HL‐60 cells; [20]): 543 pg/mL | MCP-1 (HL‐60 cells; [21]): 562 pg/mL | MCP-1 (HL‐60 cells; [22]): 459 pg/mL | MCP-1 (HL‐60 cells; [23]): 565 pg/mL | MCP-1 (HL‐60 cells; [24]): 438 pg/mL | Cellular variability of HL-60 (%) (HL‐60; 25 μg/mL, replicate 1): 95% | Cellular variability of HL-60 (%) (HL‐60; 25 μg/mL, replicate 2): 96% | Cellular variability of HL-60 (%) (HL‐60; 25 μg/mL, replicate 3): 103% | Cellular variability of HL-60 (%) (HL‐60; 50 μg/mL, replicate 1): 57% | Cellular variability of HL-60 (%) (HL‐60; 50 μg/mL, replicate 2): 56% | Cellular variability of HL-60 (%) (HL‐60; 50 μg/mL, replicate 3): 64% | Cellular variability of HL-60 (%) (HL‐60; 100 μg/mL, replicate 1): 25% | Cellular variability of HL-60 (%) (HL‐60; 100 μg/mL, replicate 2): 25% | Cellular variability of HL-60 (%) (HL‐60; 100 μg/mL, replicate 3): 26% | IL-8 (A549 cells; [7]): 172 pg/mL | IL-8 (A549 cells; [8]): 166 pg/mL | IL-8 (A549 cells; [9]): 172 pg/mL | IL-8 (A549 cells; [10]): 156 pg/mL | IL-8 (A549 cells; [11]): 129 pg/mL | IL-8 (A549 cells; [12]): 155 pg/mL | IL-8 (A549 cells; [13]): 173 pg/mL | IL-8 (A549 cells; [14]): 195 pg/mL | IL-8 (A549 cells; [15]): 192 pg/mL | IL-8 (A549 cells; [16]): 57 pg/mL | IL-8 (A549 cells; [17]): 41 pg/mL | IL-8 (A549 cells; [18]): 47 pg/mL | IL-8 (A549 cells; [19]): 66 pg/mL | IL-8 (A549 cells; [20]): 57 pg/mL | IL-8 (A549 cells; [21]): 78 pg/mL | IL-8 (A549 cells; [22]): 133 pg/mL | IL-8 (A549 cells; [23]): 122 pg/mL | IL-8 (A549 cells; [24]): 116 pg/mL

drosomycin: a specific antifungal defensin (DCLSGRYKGPCAVWDNETCRRVCKEEGRSSGHCSPSLKCWCEGC; UniProt P41964 27-70, looked up)
Non-covalent complex with UMP by ESI-MS [2]: not

penicillin [reference compound]
Log10 (CFU per lung) (SP D39; 8.35 mg/kg i.m. 24 h after intranasal SP D39, lungs at 48 h post‐infection, animal 1): 3.6 Log10 (CFU per lung) | Log10 (CFU per lung) (SP D39; 8.35 mg/kg i.m., animal 2): 4.3 Log10 (CFU per lung) | Log10 (CFU per lung) (SP D39; 8.35 mg/kg i.m., animal 3): 3.23 Log10 (CFU per lung) | Log10 (CFU per lung) (SP D39; 8.35 mg/kg i.m., animal 4): 3.28 Log10 (CFU per lung) | Log10 (CFU per lung) (SP D39; 8.35 mg/kg i.m., animal 5): 3.3 Log10 (CFU per lung) | Log10 (CFU per lung) (SP D39; 16.7 mg/kg i.m., animal 1): 1.3 Log10 (CFU per lung) | Log10 (CFU per lung) (SP D39; 16.7 mg/kg i.m., animal 2): 1.48 Log10 (CFU per lung) | Log10 (CFU per lung) (SP D39; 16.7 mg/kg i.m., animal 3): 1.3 Log10 (CFU per lung) | Log10 (CFU per lung) (SP D39; 16.7 mg/kg i.m., animal 4): 4.2 Log10 (CFU per lung) | Log10 (CFU per lung) (SP D39; 16.7 mg/kg i.m., animal 5): 4.68 Log10 (CFU per lung) | Log10 (CFU per lung) (SP D39; 30 mg/kg i.m., animal 1): 3 Log10 (CFU per lung) | Log10 (CFU per lung) (SP D39; 30 mg/kg i.m., animal 2): 1 Log10 (CFU per lung) | Log10 (CFU per lung) (SP D39; 30 mg/kg i.m., animal 3): 2.63 Log10 (CFU per lung) | Log10 (CFU per lung) (SP D39; 30 mg/kg i.m., animal 4): 1 Log10 (CFU per lung) | Log10 (CFU per lung) (SP D39; 30 mg/kg i.m., animal 5): 1 Log10 (CFU per lung)

B1: hLZc: lysozyme C isolated from human saliva (protein)
chain: KVFERCELARTLKRLGMDGYRGISLANWMCLAKWESGYNTRATNYNAGDRSTDYGIFQINSRYWCNDGKTPGAVNACHLSCSALLQDNIADAVACAKRVVRDPQGIRAWVAWRNRCQNRDVRQYVQGCGV
Inhibition zone of the factor alone [5]: no visible inhibition zones | Inhibition zone of the factor alone [6]: no visible inhibition zones
